Measurements published in patent publication US5281616A, “Porphyrin and phthalocyanine antiviral compositions” (priority 1992, dated 1994).
Several values for one entry are separate records, joined by “and”; a condition that tells them apart may be missing. Equal entries are not always repeated. Structures can show the parent of a compound that is named as a salt. Where two headings read alike, the source gives them in different places.

Legend:
[1] = biological target: HIV-1 reverse transcriptase (Human immunodeficiency virus type 1 group M subtype B, UniProt P04585); assay: Inhibition of purified HIV-1 reverse transcriptase (cell free); assay type: biochemical
Experimental: Methodology for Testing Antiviral Drugs for Inhibition of HIV-1 Reverse Transcriptase
Cells and viruses are cultured as described above. […] 12,431-439 (1973). Cocktail, template, compound to be tested and reverse transcriptase are mixed together on ice, then incubated for one hour at 37° C.. The DNA synthesized is acid precipitated and the radioactivity measured, as described by Eriksson, B., et al., Antimicrobial Agents and Chemotherapy 31, 600-604 ([…]).

[2] = test system: HIV-1 (strain LAV-1); assay: Inhibition of HIV replication in PBM cells (supernatant RT activity); assay type: cell-based
[3] = test system: reverse transcriptase of avian myeloblastosis virus; settings: 10^-4 M; cited from earlier work
[4] = test system: reverse transcriptase of Rauscher murine leukemia virus; settings: cited from earlier work
[5] = test system: herpes simplex virus type 1; assay: Plaque assay in Vero cells, HSV type 1; assay type: cell-based, HSV-1
Experimental: (§1) Methodology for Testing Antiviral Drugs for Inhibition of Replication of HSV-1 and HSV-2
(§2) Compounds are tested for inhibition of herpes simplex virus type 1 and herpes simplex virus type 2 using the method of Schinazi, et al., Antimicrobial Agents and Chemotherapy 22, 499-507 (1982). This is a plaque assay using Vero cells (African green monkey cells) infected with HSV.

[6] = test system: herpes simplex virus type 2; assay: Plaque assay in Vero cells, HSV type 2; assay type: cell-based, HSV-2
Experimental: as §1, §2

[7] = test system: herpes simplex viruses; settings: upon exposure to light; concentrations as low as; cited from earlier work
[8] = test system: influenza A; settings: upon exposure to light; concentrations as low as; cited from earlier work
[9] = read-out: EC50, inhibition of HIV reverse transcriptase, purified enzyme, one hour at 37° C.
[10] = Human immunodeficiency virus 1, PBMC, 120 h, human PBM cells, RT activity in supernatant five days after infection, read-out: EC50, inhibition of HIV replication in PBM cells
[11] = human PBM cells, RT activity in supernatant five days after infection, read-out: EC50, inhibition of HIV replication in PBM cells
[12] = purified enzyme, one hour at 37° C., read-out: EC50, inhibition of HIV reverse transcriptase
[13] = Human alphaherpesvirus 1, Dark, Vero cells plaque assay, read-out: EC50 HSV type 1 Dark
[14] = Human alphaherpesvirus 1, Light, Vero cells plaque assay, read-out: EC50 HSV type 1 Light
[15] = Human alphaherpesvirus 2, Dark, Vero cells plaque assay, read-out: EC50 HSV type 2 Dark
[16] = Human alphaherpesvirus 2, Light, Vero cells plaque assay, read-out: EC50 HSV type 2 Light
[17] = Human immunodeficiency virus 1, PBMC, 120 h, read-out: EC50, inhibition of HIV replication in PBM cells, human PBM cells, RT activity in supernatant five days after infection

## C[n+]1cccc(-c2c3nc(c(-c4ccccc4)c4ccc([nH]4)c(-c4ccc[n+](C)c4)c4nc(c(-c5ccccc5)c5ccc2[nH]5)C=C4)C=C3)c1 [TP-4, 5,15-Diphenyl-10,20-di(N-methyl-3-pyridyl)-porphyrin Cl-]
[1]; [9]
  EC50: 6.9 µM
[2]; [10]
  EC50: < 1 µM
[2]; [11]
  EC50: 0.76 µM

## Hemin, bovine, (chloro protoporphyrin IX Fe(III)) [FePPIXCl]
[1]; [12]
  EC50: 20.5 µM
[2]; [11]
  EC50: 49.3 µM
[3]
  Inhibition of reverse transcriptase activity (in words): not
[4]
  Concentration inhibiting reverse transcriptase activity: 10^-4 M

## C[n+]1ccc(-c2c3nc(c(-c4ccccc4)c4ccc([nH]4)c(-c4ccccc4)c4nc(c(-c5cc[n+](C)cc5)c5ccc2[nH]5)C=C4)C=C3)cc1 [CP-4, 5,10-Diphenyl-15,20-di(N-methyl-4-pyridyl)-porphyrin Cl-]
[1]
  EC50: 26.9 µM
[2]
  Difference in inhibition of HIV, dark versus light: No significant differences in activity
[2]; Human immunodeficiency virus 1, PBMC, 120 h, read-out: EC50, inhibition of HIV replication in PBM cells
  EC50: 0.38 µM
[2]; Human immunodeficiency virus 1, PBMC, read-out: EC50, inhibition of HIV replication in PBM cells
  EC50: 0.43 µM

## Clc1ccc(-c2c3nc(c(-c4ccc(Cl)cc4)c4ccc([nH]4)c(-c4ccc(Cl)cc4)c4nc(c(-c5ccc(Cl)cc5)c5ccc2[nH]5)C=C4)C=C3)cc1 [TPP(4-Cl)4, Tetra-(4-chlorophenyl)-porphyrin]
[2]; [10]
  EC50: ~100 µM

## C[n+]1ccc(-c2c3nc(c(-c4cc[n+](C)cc4)c4ccc([nH]4)c(-c4cc[n+](C)cc4)c4nc(c(-c5cc[n+](C)cc5)c5ccc2[nH]5)C=C4)C=C3)cc1.Cl.[Fe+3] [FeTMPyP, Fe(III)-tetra-(N-methyl-4-pyridyl)-porphyrin chloride]
[2]; [11]
  EC50: 78.1 µM

## C[n+]1ccc(-c2c3nc(c(-c4cc[n+](C)cc4)c4ccc([nH]4)c(-c4ccccc4)c4nc(c(-c5ccccc5)c5ccc2[nH]5)C=C4)C=C3)cc1.[Cu+2] [Cu-CP4, Cu(II)-5,10-diphenyl-15,20-di(N-methyl-4-pyridyl)-porphyrin]
[1]; [12]
  EC50: 57.4 µM
[2]; [11]
  EC50: 4.76 µM and 5.78 µM

## Oc1ccc(-c2c3nc(c(-c4ccc(O)cc4)c4ccc([nH]4)c(-c4ccc(O)cc4)c4nc(c(-c5ccc(O)cc5)c5ccc2[nH]5)C=C4)C=C3)cc1 [TPP(4-OH)4, Tetra-(4-hydroxyphenyl)-porphyrin]
[2]; [10]
  EC50: 0.6 µM
[2]; [11]
  EC50: 0.7 µM
[5]; [13]
  EC50: > 10 µM
[5]; [14]
  EC50: > 10 µM
[6]; [15]
  EC50: > 10 µM
[6]; [16]
  EC50: > 10 µM

## Cc1cccc(-c2c3nc(c(-c4cccc(C)c4)c4ccc([nH]4)c(-c4cccc(C)c4)c4nc(c(-c5cccc(C)c5)c5ccc2[nH]5)C=C4)C=C3)c1 [TPP(3-Me)4, Tetra-(3-methylphenyl)-porphyrin]
[5]; [13]
  EC50: > 10 µM
[5]; [14]
  EC50: > 10 µM
[6]; [16]
  EC50: > 10 µM

## Cl[Si]1(Cl)n2c3c4ccccc4c2N=C2N=C(N=c4c5ccccc5c(n41)=NC1=NC(=N3)c3ccccc31)c1ccccc12 [SiPHTHCl2, Silicon phthalocyanine dichloride]
[2]; [17]
  EC50: ≤ 1 µM

## C1=Cc2nc1c(-c1ccccc1)c1ccc([nH]1)c(-c1ccccc1)c1nc(c(-c3ccccc3)c3ccc([nH]3)c2-c2ccccc2)C=C1 [TPP, Meso-tetraphenylporphine]
[1]
  EC50: > 100 µM
[2]; [17]
  EC50: 13.7 µM
[2]; read-out: EC50, inhibition of HIV replication in PBM cells, human PBM cells, RT activity in supernatant five days after infection
  EC50: > 10 µM
[5]; [13]
  EC50: > 10 µM
[5]; [14]
  EC50: 10 µM
[6]; [15]
  EC50: > 10 µM
[6]; [16]
  EC50: > 10 µM

## C=CC1=C(C)c2cc3[nH]c(cc4nc(cc5[nH]c(cc1n2)c(C)c5C=C)C(C)=C4CCC(=O)OC)c(CCC(=O)OC)c3C [PPIXDME, Protoporphyrin IX dimethyl ester]
[1]
  EC50: > 100 µM
[5]; [13]
  EC50: > 10 µM
[5]; [14]
  EC50: 10 µM
[6]; [15]
  EC50: > 10 µM
[6]; [16]
  EC50: > 10 µM

## Copper-4,4',4'',4'''-tetra-aza-29H, 31H-phthalocyanine [CuPHTHN4]
[2]; [11]
  EC50: 100 µM

## Fe(III)-tetra-(4-methylphenyl)-porphyrin chloride [(FeTPP)(4-Cl)4]
[2]; [11]
  EC50: > 100 µM

## C[n+]1ccc(-c2c3nc(c(-c4cc[n+](C)cc4)c4ccc([nH]4)c(-c4cc[n+](C)cc4)c4nc(c(-c5cc[n+](C)cc5)c5ccc2[nH]5)C=C4)C=C3)cc1 [TMPyP, Tetra-(N-methyl-4-pyridyl)-porphyrin tosylate salt]
[5]; Human alphaherpesvirus 1, Vero, read-out: EC50 HSV type 1 Dark
  EC50: 0.04 µM
[5]; Human alphaherpesvirus 1, Vero, read-out: EC50 HSV type 1 Light
  EC50: 0.03 µM
[6]; Human alphaherpesvirus 2, Vero, read-out: EC50 HSV type 2 Dark
  EC50: > 10 µM
[6]; Human alphaherpesvirus 2, Vero, read-out: EC50 HSV type 2 Light
  EC50: > 1 µM

## O=C(O)c1ccc(-c2c3nc(c(-c4ccc(C(=O)O)cc4)c4ccc([nH]4)c(-c4ccc(C(=O)O)cc4)c4nc(c(-c5ccc(C(=O)O)cc5)c5ccc2[nH]5)C=C4)C=C3)cc1 [TPP(4-CO2 H)4, Tetra-(4-carboxyphenyl)-porphyrin]
[1]
  EC50: 1.1 µM
[5]; [13]
  EC50: 2.5 µM
[5]; [14]
  EC50: 10 µM
[6]; [15]
  EC50: > 10 µM
[6]; [16]
  EC50: > 10 µM

## Nickel phthalocyanine tetrasulfonic acid [NiPHTHS4]
[2]; [11]
  EC50: 1.06 µM

## Fe(III)-mu-oxo-dimer of tetraphenyl-porphyrin [μ-oxo-TPP]
[2]; [11]
  EC50: > 100 µM

## Copper phthalocyanine 3,4'4'',4'''-tetrasulfonic acid [(CuPHTHS4)(3,4,4,4)]
[2]; [11]
  EC50: ≤ 1 µM

## Copper phthalocyanine tetrasulfonic acid tetra-sodium salt [CuPHTHS4]
[2]; [11]
  EC50: 22.4 µM

## [Cl][Fe]1[n]2c3ccc2C(c2ccccc2)=C2C=CC(=N2)C(c2ccccc2)=c2ccc([n]21)=C(c1ccccc1)C1=NC(=C3c2ccccc2)C=C1 [FeTPPCl, Fe(III)-tetraphenylporphyrin chloride]
[2]; [11]
  EC50: ~100 µM

## Cc1ccc(-c2c3nc(c(-c4ccc(C)cc4)c4ccc([nH]4)c(-c4ccc(C)cc4)c4nc(c(-c5ccc(C)cc5)c5ccc2[nH]5)C=C4)C=C3)cc1 [TPP(4-Me)4, Tetra-(4-methylphenyl)-porphyrin]
[1]
  EC50: > 100 µM
[5]; [13]
  EC50: > 10 µM
[5]; [14]
  EC50: 1 µM
[6]; [15]
  EC50: 3.95 µM
[6]; [16]
  EC50: > 10 µM

## C=CC1=C(C)c2cc3[nH]c(cc4nc(cc5[nH]c(cc1n2)c(C)c5CCC(=O)O)C(CCC(=O)O)=C4C)c(C)c3C=C [PPIX, Protoporphyrin, disodium salt]
[1]
  EC50: > 100 µM
[5]; [14]
  EC50: < 0.01 µM
[6]; [15]
  EC50: 10 µM
[6]; [16]
  EC50: 0.05 µM

## C[n+]1ccc(-c2c3nc(c(-c4ccccc4)c4ccc([nH]4)c(-c4cc[n+](C)cc4)c4nc(c(-c5ccccc5)c5ccc2[nH]5)C=C4)C=C3)cc1 [TP-3, 5,15-Diphenyl-10,20-di(N-methyl-4-pyridyl)-porphyrin Cl-]
[1]; [9]
  EC50: 7.3 µM

## Reactive Blue 15
[2]; [11]
  EC50: ≤ 1 µM

## [Co+2].c1ccc2c(c1)-c1nc-2nc2[n-]c(nc3nc(nc4[n-]c(n1)c1ccccc41)-c1ccccc1-3)c1ccccc21 [CoPHTH, Cobalt phthalocyanine]
[2]; [11]
  EC50: 100 µM

## C[n+]1ccc(-c2c3nc(c(-c4ccccc4)c4ccc([nH]4)c(-c4ccccc4)c4nc(c(-c5cc[n+](C)cc5)c5ccc2[nH]5)C=C4)C=C3)cc1.[Ni+2] [Ni-CP4, Ni(II)-5,10-diphenyl-15,20-di(N-methyl-4-pyridyl)-porphyrin]
[1]; [12]
  EC50: 24.8 µM
[2]; [11]
  EC50: 3.44 µM and 6.54 µM

## C[n+]1cccc(-c2c3nc(c(-c4ccccc4)c4ccc([nH]4)c(-c4ccccc4)c4nc(c(-c5ccc[n+](C)c5)c5ccc2[nH]5)C=C4)C=C3)c1 [CP-3, 5,10-Diphenyl-15,20-di(N-methyl-3-pyridyl)-porphyrin Cl-]
[1]
  EC50: 41.6 µM
[2]; [10]
  EC50: 2.28 µM

## [Cu+2].c1ccc2c(c1)-c1nc-2nc2[n-]c(nc3nc(nc4[n-]c(n1)c1ccccc41)-c1ccccc1-3)c1ccccc21 [CuPHTH, Copper phthalocyanine]
[2]; [11]
  EC50: 46.9 µM

## CC1=C(CCC(=O)O)c2cc3[nH]c(cc4nc(cc5[nH]c(cc1n2)c(C)c5C(C)O)C(C)=C4C(C)O)c(C)c3CCC(=O)O (stereo not drawn) [hematoporphyrin]
[7]
  Concentration inhibiting in vitro replication of herpes simplex viruses: 0.5 µg/mL
[8]
  Concentration inhibiting in vitro replication of influenza A: 0.5 µg/mL
